According to PubChem BioAssay AID194 (DTP/NCI, 2004):
Several values for one entry are separate records, joined by “and”; a condition that tells them apart may be missing. Identical values can stand only once. Records with an inconclusive call do not appear.

System: BDF1 mice, B16 melanoma s.c., survival/tumor T/C
Assay: NCI In Vivo Anticancer Drug Screen. Data for tumor model B16 Melanoma (subcutaneous) in B6D2F1 (BDF1) mice
Protocol: The antitumor activity of compounds was measured in mice bearing transplantable tumors. Survival or tumor size were measured and the results are expressed as the measurement made in the treated group (T) divided by the measurement made in the vehicle treated control group (C). The tumor model used in this assay is B16 Melanoma (subcutaneous) in B6D2F1 (BDF1) mice

[1] = endpoint: median survival time, dose: 25.0 mg/kg/injection, schedule: Q01DX009 (ip), vehicle: Klucel (hydroxypropylcellulose) (HPC), higher = longer survival
[2] = endpoint: median survival time, dose: 50.0 mg/kg/injection, schedule: Q01DX009 (ip), vehicle: Klucel (hydroxypropylcellulose) (HPC), higher = longer survival
[3] = endpoint: median survival time, dose: 100.0 mg/kg/injection, schedule: Q01DX009 (ip), vehicle: Klucel (hydroxypropylcellulose) (HPC), higher = longer survival

Compound: Nc1n[nH]c(N)n1
- T/C (endpoint: median survival time, dose: 100.0 mg/kg/injection, schedule: Q01DX009 (ip), vehicle: saline with Tween-80, higher = longer survival): 93 % of control
- T/C (endpoint: median survival time, dose: 400.0 mg/kg/injection, schedule: Q01DX009 (ip), vehicle: saline with Tween-80, higher = longer survival): 97 % of control
- T/C (endpoint: median survival time, dose: 800.0 mg/kg/injection, schedule: Q01DX009 (ip), vehicle: saline with Tween-80, higher = longer survival): 97 % of control
- T/C (endpoint: median tumor weight (est.), dose: 100.0 mg/kg/injection, schedule: Q01DX009 (ip), vehicle: saline with Tween-80, higher = larger tumour): 100 % of control
- T/C (endpoint: median tumor weight (est.), dose: 800.0 mg/kg/injection, schedule: Q01DX009 (ip), vehicle: saline with Tween-80, higher = larger tumour): 154 % of control

Compound: CC1(C)N=C(N)N=C(N)N1c1ccc(OCC(=O)Nc2ccc(S(=O)(=O)F)cc2)c(Cl)c1
- T/C (endpoint: median survival time, dose: 50.0 mg/kg/injection, schedule: Q04DX003 (ip), vehicle: saline, higher = longer survival): 115 % of control
- T/C (endpoint: median survival time, dose: 100.0 mg/kg/injection, schedule: Q04DX003 (ip), vehicle: saline, higher = longer survival): 113 % of control

Compound: Cc1c[n+]2c3ccccc3c3ccccc3c2s1
- T/C (endpoint: median survival time, dose: 20.0 mg/kg/injection, schedule: Q01DX009 (ip), vehicle: Klucel (hydroxypropylcellulose) (HPC), higher = longer survival): 121 % of control

Compound: COc1ccc(CCN2C(=O)CSC2=S)cc1OC
- T/C [1]: 120 % of control
- T/C [2]: 123 % of control
- T/C [3]: 116 % of control

Compound: C[n+]1c2ccccc2c(Nc2ccc(NS(=O)(=O)CCCCN=C(N)N)cc2)c2ccc(N)cc21
- T/C (endpoint: median survival time, dose: 1.5 mg/kg/injection, schedule: Q01DX009 (sc), vehicle: saline, higher = longer survival): 96 % of control
- T/C (endpoint: median survival time, dose: 3.0 mg/kg/injection, schedule: Q01DX009 (sc), vehicle: saline, higher = longer survival): 112 % of control
- T/C (endpoint: median survival time, dose: 6.0 mg/kg/injection, schedule: Q01DX009 (sc), vehicle: saline, higher = longer survival): 108 % of control

Compound: c1ccc(-c2csc3c4ccccc4c4ccccc4[n+]23)cc1
- T/C (endpoint: median survival time, dose: 0.5 mg/kg/injection, schedule: Q01DX009 (ip), vehicle: suspension in saline, higher = longer survival): 114 % of control
- T/C (endpoint: median survival time, dose: 1.0 mg/kg/injection, schedule: Q01DX009 (ip), vehicle: suspension in saline, higher = longer survival): 124 % of control

Compound: O=P1(N(CCCl)CCCl)NCCCO1 (centres undefined)
- T/C (endpoint: median survival time, dose: 15.0 mg/kg/injection, schedule: Q04DX003 (ip), vehicle: saline, higher = longer survival): 111 % of control
- T/C (endpoint: median survival time, dose: 30.0 mg/kg/injection, schedule: Q04DX003 (ip), vehicle: saline, higher = longer survival): 123 % of control
- T/C (endpoint: median survival time, dose: 60.0 mg/kg/injection, schedule: Q04DX003 (ip), vehicle: saline, higher = longer survival): 171 % of control
- T/C (endpoint: median survival time, dose: 120.0 mg/kg/injection, schedule: Q04DX003 (ip), vehicle: saline, higher = longer survival): 193 % of control
- T/C (endpoint: median survival time, dose: 200.0 mg/kg/injection, schedule: Q01DX001 (ip), vehicle: saline, higher = longer survival): 158 % of control
- T/C (endpoint: median tumor weight (est.), dose: 50.0 mg/kg/injection, schedule: Q01DX009 (ip), vehicle: saline, higher = larger tumour): 19 % of control and 40 % of control
- T/C (endpoint: median tumor weight (est.), dose: 100.0 mg/kg/injection, schedule: Q01DX009 (ip), vehicle: saline, higher = larger tumour): 19 % of control

Compound: O=NN(CCCl)C(=O)NCCO
- T/C (endpoint: median survival time, dose: 2.59 mg/kg/injection, schedule: Q01DX007 (ip), vehicle: water, higher = longer survival): 102 % of control
- T/C (endpoint: median survival time, dose: 4.32 mg/kg/injection, schedule: Q01DX007 (ip), vehicle: water, higher = longer survival): 98 % of control

Compound: CCC(=O)OCC(=O)[C@]1(O)Cc2c(O)c3c(c(O)c2[C@@H](OC2CC(N)C(O)C(C)O2)C1)C(=O)c1c(OC)cccc1C3=O (some centres undefined)
- T/C (endpoint: median survival time, dose: 0.25 mg/kg/injection, schedule: Q01DX009 (ip), vehicle: saline, higher = longer survival): 90 % of control
- T/C (endpoint: median survival time, dose: 0.5 mg/kg/injection, schedule: Q01DX009 (ip), vehicle: saline, higher = longer survival): 118 % of control
- T/C (endpoint: median survival time, dose: 1.0 mg/kg/injection, schedule: Q01DX009 (ip), vehicle: saline, higher = longer survival): 102 % of control

Compound: CC1=CCC(C(C)C)C=C1 (centres undefined)
- T/C [1]: 121 % of control
- T/C [2]: 117 % of control
- T/C [3]: 89 % of control and 100 % of control
- T/C (endpoint: median survival time, dose: 200.0 mg/kg/injection, schedule: Q01DX009 (ip), vehicle: Klucel (hydroxypropylcellulose) (HPC), higher = longer survival): 98 % of control and 108 % of control

Compound: O=C(O)CC(NC(=O)CP(=O)(O)O)C(=O)O (centres undefined)
- T/C (endpoint: median survival time, dose: 153.0 mg/kg/injection, schedule: Q01DX009 (ip), vehicle: saline, higher = longer survival): 110 % of control
- T/C (endpoint: median survival time, dose: 1140.0 mg/kg/injection, schedule: Q01DX001 (ip), vehicle: saline, higher = longer survival): 114 % of control
